The text below walks through data of US20220079962A1, “NUTRITIONAL COMPOSITION COMPRISING 2'FUCOSYLLACTOSE AND DIETARY BUTYRATE” (N.V. Nutricia, priority 2019, published 2022).

One assay has as its system Caco-2 cell monolayer. Kind of assay: DON-induced impairment of Caco-2 cell monolayer integrity (TEER, lucifer yellow flux). It counts as cell-based, human. The note with it: 24 h pretreatment with 0.75 wt. % GL, then DON 4.2 μM 24 h; FIGS. 1A-D. On the procedure:
Caco-2 cells were used according to established methods. In brief: cells were cultured in Dulbecco's modified Eagle medium (DMEM) and seeded at a density of 0.3×10^5 cells into 0.3 cm^2 high pore density (0.4 μm) inserts with a polyethylene terephthalate membrane (BD Biosciences, Franklin Lakes, N.J., USA) placed in a 24-well plate. The Caco-2 cells were maintained in a humidified atmosphere of 95 air and 5% CO2 at 37° C.
Caco-2 cell monolayers were thus grown in a transwell system, which is a model for intestinal barrier function. The monolayers were pretreated for 24 h with different GLs, including beta3′-GL, alpha3′-GL, beta4′-GL and beta6′-GL in a concentration of 0.75 wt. % of the GL, before being exposed to the fungal toxin deoxynivalenol (DON), which is a trigger and model compound to impair intestinal barrier. DON was diluted to a final concentration of 4.2 μM in complete cell medium and added to the apical side as well as to the basolateral side of the transwell inserts. […] Incubation with DON was 24 h.
Measurements of the transepithelial electrical resistance (TEER) and lucifer yellow (LY) permeability were conducted to investigate barrier integrity. For TEER measurements a Millicel-ERS voltohmmeter connected to a pair of chopsticks electrodes was used to measure the TEER values. Results are expressed as a percentage of the initial value. For paracellular tracer flux assay the membrane impermeable lucifer yellow (LY) (Sigma, St Louis, Mo., USA) was added in a concentration of 16 μg/ml to the apical compartment in the transwell plate for 4 h, and the paracellular flux was determined by measuring the fluorescence intensity in the basolateral compartment with a spectrophotofluorimeter (FLUOstar Optima, BMG Labtech, Offenburg, Germany) set at excitation and emission wavelengths of 410 and 520 nm, respectively. Release of interleukin-8 (IL-8 or CXCL8), which is a typical marker for inflammation, was quantified in the medium of the apical side and the basolateral side of the Caco-2 transwell inserts in response to the treatments. CXCL8 concentrations were measured by using the human IL-8 ELISA assay (BD Biosciences, Pharmingem, San Diego, Calif., USA) according to manufacturer's instructions. For more details on materials and methods see Akbari et al, 2016, Eur J Nutr. 56(5):1919-1930.

The test system of assay [1] is T84 human intestinal epithelial cells. Briefly: T84 monolayer barrier integrity (TEER) with IL-4. The assay is classed as cell-based. On the procedure:
T84 human intestinal epithelial cells are commonly used to study intestinal barrier integrity in vitro. T84 cells (ATCC, USA) were cultured on 12 mm transwell inserts (0.4 μm, Corning Costrar, USA) in DMEM-F12 glutamax with penicillin-streptomycin (100 IU/ml), supplemented with 5% FBS-Hl. T84 cells were used 14 days after reaching confluence. Monolayers of T84 cultured on transwell filters were pre-incubated for 48 h with or without butyrate. These samples were subsequently incubated for an additional 48 h in the presence of IL-4 (25 ng/ml). IL-4 was added to the basolateral compartment; medium and additives were changed every 24 h.
Epithelial barrier integrity was assessed by measuring transepithelial resistance (TEER; Ω×cm^2) with the epithelial volt-ohm meter (EVOM; World Precision Instruments, Germany).

The test system of assay [2] is human peripheral blood mononuclear cells (PBMC). Briefly: PBMC cytokine levels, unstimulated condition. It counts as cell-based. An excerpt:
Isolation of PBMC from healthy donors: Human peripheral blood mononuclear cells (PBMC) from healthy donors were isolated from buffy coats (Sanquin, Amsterdam, the Netherlands). PBMC were obtained by centrifugation using Leucosep tubes (Greiner Bio-One). […] After lysis, the PBMC were resuspended in freezing medium (70% RPMI 1640 medium (Gibco, Thermo Fisher Technologies) supplemented with 10% heat-inactivated FCS and 100 U/ml penicillin-streptomycin, 20% heat-inactivated FCS and 10% DMSO (Sigma)) and cryopreserved. PBMC activation model: PBMC (0.2.10^6 cell/well) were cultured in 96-well flat bottom plates (Corning). For 24 hours the cells were pre-incubated with 2'-FL (Jennewein), 3'-GL (0-0.3% w/v; […] Sigma Aldrich) and combinations thereof. Subsequently, the cells were CD3/CD28-activated (Pelicluster CD3 and Pelicluster CD28, Sanquin) for an additional 24 hours. After incubation, IFNγ was measured by ELISA in the supernatants (see below). […] Roche) and/or 10% Triton (5 μl; negative control). […] Cytokine production of PBMC: PBMC were incubated with indicated reagents. After incubation, the supernatants were collected and IL2, IL6, IL10, IL13, IL21, TNFα, IFNγ, MIF, CCL1, CCL13, CCL17, CCL20, CCL22 and CXCL8-11 levels were measured by conducting a validated multiplex immunoassay based on Luminex technology (xMAP, Luminex Austin Tex. USA). Acquisition was conducted with the Biorad […] (Biorad laboratories, Hercules USA) in combination with xPONENT software version 4.2 (Luminex). Data was analyzed by 5-parametric curve fitting using Bio-Plex Manager software, version 6.1.1 (Biorad). After PBMC stimulation, cell culture supernatants were collected, after which cytokine responses were measured in order to test immune responsiveness of the cells. The levels of cytokines measured in stimulated conditions were corrected for the (low) levels of the cytokines measured in non-stimulated conditions. In addition, since each donor is reacting in its own efficiency onto the T cell stimulus, we calculated the individual index of cytokine response by dividing the intervention induced response by the basal stimulated response.

For assay [3] the test system is unchanged. Briefly: PBMC cell activity (WST-1). The assay is classed as cell-based. The note with it: after 24 h. On the procedure:
PBMC activation model: PBMC (0.2.10^6 cell/well) were cultured in 96-well flat bottom plates (Corning). For 24 hours the cells were pre-incubated with 2′-FL (Jennewein), 3′-GL (0-0.3% w/v; […] Sigma Aldrich) and combinations thereof. Subsequently, the cells were CD3/CD28-activated (Pelicluster CD3 and Pelicluster CD28, Sanquin) for an additional 24 hours. After incubation, IFNγ was measured by ELISA in the supernatants (see below). […] Roche) and/or 10% Triton (5 μl; negative control).

On to `OC[C@H]1O[C@H](O[C@H]2[C@@H](O)[C@@H](CO)O[C@@H](O[C@H]3[C@H](O)[C@@H](O)C(O)O[C@@H]3CO)[C@@H]2O)[C@H](O)[C@@H](O)[C@H]1O` (stereo partly drawn) [alpha3′-GL, Gal (alpha 1-3)-Gal (beta 1-4)-Glc, reference compound], for which, in the assay with Caco-2 cell monolayer, the “effect on DON-induced loss of epithelial barrier integrity (TEER, LY flux)” value (“effect on DON-induced loss” below) is listed as “did not prevent the DON-induced disrupted intestinal barrier”.

For `OC[C@H]1O[C@@H](O[C@@H]2[C@H](O)[C@@H](O)[C@H](O[C@H]3[C@H](O)[C@@H](O)C(O)O[C@@H]3CO)O[C@@H]2CO)[C@H](O)[C@@H](O)[C@H]1O` (stereo partly drawn) [beta4′-GL, Gal (beta 1-4)-Gal (beta 1-4)-Glc, reference compound], the “effect on DON-induced loss” value with Caco-2 cell monolayer is “did not show a significant effect”.

As for `OC[C@H]1O[C@@H](OC[C@H]2O[C@@H](O[C@H]3[C@H](O)[C@@H](O)C(O)O[C@@H]3CO)[C@H](O)[C@@H](O)[C@H]2O)[C@H](O)[C@@H](O)[C@H]1O` (stereo partly drawn) [beta6′-GL, Gal (beta 1-6)-Gal (beta 1-4)-Glc, reference compound], in the assay with Caco-2 cell monolayer, the “effect on DON-induced loss” value is “did not show a significant effect”.

As for `CCCC(=O)O` [butyrate, butyric acid], in assay [1], the “IL-4 induced disruption of intestinal barrier function” value is listed as “ameliorated”. In assay [2] (0.2% 2′-FL, 0.2 mM butyrate), the “IL10 level compared to blanc control” value was “did not have an effect on IL10 levels”. In assay [2] (unstimulated), the “CCL20 level compared to blanc control” value is “did not have a statistically significant effect”. Besides, the “Immune cell activity as measured by WST” value in assay [3] was “did not influence immune cell metabolic activity”.
